The term TD50 denotes the 50% point of the dose-response relation for the toxic effect studied.

Drawing on PubChem BioAssay AID1745844 (Carcinogenic Potency Database (CPDB), 2022), this text covers TD50 and carcinogen call for four compounds.

Activity calls are given as the source filed them. How the calls were made is not given here.

The subject of the series is rodent lifetime carcinogenesis bioassay, tumor incidence TD50. Kind of series: chronic cancer bioassays in animals – CPDB, compiled studies (AID 1745844).

With `C1CO1`, the TD50 is, setting by setting: (mouse, strain B6C3F1, females, inhaled, site: Harderian gland + lung, lesion: papillary cystadenoma, NOS + alveolar/bronchiolar adenoma + alveolar/bronchiolar carcinoma, dosed 102 weeks, study length 104 weeks) 45.8 mg/kg/day; (mouse, strain B6C3F1, females, inhaled, site: Harderian gland, lesion: papillary cystadenoma, NOS, dosed 102 weeks, study length 104 weeks) 142 mg/kg/day; (mouse, strain B6C3F1, females, inhaled, site: any site (literature study), lesion: several types, types named in the paper, dosed 102 weeks, study length 104 weeks) 103 mg/kg/day; (mouse, strain B6C3F1, females, inhaled, site: duodenum + Harderian gland + kidney + lung + mediastinum + mammary gland + mesenteric lymph node + multiple organs + spleen + uterus, lesion: malignant lymphoma, NOS + papillary cystadenoma, NOS + alveolar/bronchiolar adenoma + alveolar/bronchiolar carcinoma + adenocarc, dosed 102 weeks, study length 104 weeks) 39.2 mg/kg/day; (mouse, strain B6C3F1, females, inhaled, site: duodenum + kidney + mediastinum + mammary gland + mesenteric lymph node + multiple organs + spleen + uterus, lesion: malignant lymphoma, NOS + adenocarcinoma, NOS + adenosquamous carcinoma + malignant lymphoma, histiocytic type + adenoma, NOS, dosed 102 weeks, study length 104 weeks) 79.2 mg/kg/day; (mouse, strain B6C3F1, females, inhaled, site: duodenum + kidney + mediastinum + mesenteric lymph node + multiple organs + spleen + uterus, lesion: malignant lymphoma, NOS + malignant lymphoma, histiocytic type, dosed 102 weeks, study length 104 weeks) 139 mg/kg/day. Further, the TD50 was 149 mg/kg/day (mouse, strain B6C3F1, females, inhaled, site: liver, lesion: hepatocellular adenoma + hepatocellular carcinoma + neoplastic nodule, dosed 102 weeks, study length 104 weeks); 75.8 mg/kg/day (mouse, strain B6C3F1, females, inhaled, site: liver, lesion: hepatocellular adenoma, dosed 102 weeks, study length 104 weeks); 61.8 mg/kg/day (mouse, strain B6C3F1, females, inhaled, site: lung, lesion: alveolar/bronchiolar adenoma + alveolar/bronchiolar carcinoma, dosed 102 weeks, study length 104 weeks); 87.5 mg/kg/day (mouse, strain B6C3F1, females, inhaled, site: lung, lesion: alveolar/bronchiolar adenoma, dosed 102 weeks, study length 104 weeks); 200 mg/kg/day (mouse, strain B6C3F1, females, inhaled, site: lung, lesion: alveolar/bronchiolar carcinoma, dosed 102 weeks, study length 104 weeks); 76.3 mg/kg/day (mouse, strain B6C3F1, females, inhaled, site: mammary gland, lesion: adenocarcinoma, NOS + adenosquamous carcinoma, dosed 102 weeks, study length 104 weeks). Also, the TD50 was 250 mg/kg/day (mouse, strain B6C3F1, females, inhaled, site: uterus, lesion: adenocarcinoma, NOS + adenoma, NOS, dosed 102 weeks, study length 104 weeks); 297 mg/kg/day (mouse, strain B6C3F1, females, inhaled, site: uterus, lesion: adenocarcinoma, NOS, dosed 102 weeks, study length 104 weeks); 51.2 mg/kg/day (mouse, strain B6C3F1, males, inhaled, site: Harderian gland + lung, lesion: papillary cystadenoma, NOS + alveolar/bronchiolar adenoma + alveolar/bronchiolar carcinoma, dosed 102 weeks, study length 104 weeks); 110 mg/kg/day (mouse, strain B6C3F1, males, inhaled, site: Harderian gland, lesion: papillary cystadenoma, NOS, dosed 102 weeks, study length 104 weeks); 108 mg/kg/day (mouse, strain B6C3F1, males, inhaled, site: any site (literature study), lesion: several types, types named in the paper, dosed 102 weeks, study length 104 weeks); 273 mg/kg/day (mouse, strain B6C3F1, males, inhaled, site: liver, lesion: hepatocellular adenoma + hepatocellular carcinoma + neoplastic nodule, dosed 102 weeks, study length 104 weeks). The TD50 reads like this: (mouse, strain B6C3F1, males, inhaled, site: lung, lesion: alveolar/bronchiolar adenoma + alveolar/bronchiolar carcinoma, dosed 102 weeks, study length 104 weeks) 65.7 mg/kg/day; (mouse, strain B6C3F1, males, inhaled, site: lung, lesion: alveolar/bronchiolar adenoma, dosed 102 weeks, study length 104 weeks) 181 mg/kg/day; (mouse, strain B6C3F1, males, inhaled, site: lung, lesion: alveolar/bronchiolar carcinoma, dosed 102 weeks, study length 104 weeks) 110 mg/kg/day; (rat, strain Fischer 344/Mai fBR, females, inhaled, site: brain, lesion: several types, types named in the paper, dosed 76 weeks, study length 78 weeks) 237 mg/kg/day; (rat, strain Fischer 344/Mai fBR, females, inhaled, site: brain, lesion: several types, types named in the paper, dosed 101 weeks, study length 104 weeks) 143 mg/kg/day; (rat, strain Fischer 344/Mai fBR, females, inhaled, site: pituitary gland, lesion: adenoma, dosed 76 weeks, study length 78 weeks) 29.8 mg/kg/day (inactive). Besides, the TD50 was 26.1 mg/kg/day (inactive) (rat, strain Fischer 344/Mai fBR, males, inhaled, site: adrenal gland, lesion: pheochromocytoma, dosed 76 weeks, study length 78 weeks); 102 mg/kg/day (rat, strain Fischer 344/Mai fBR, males, inhaled, site: brain, lesion: astrocytoma, dosed 76 weeks, study length 78 weeks); 70.7 mg/kg/day (rat, strain Fischer 344/Mai fBR, males, inhaled, site: brain, lesion: several types, types named in the paper, dosed 105 weeks, study length 108 weeks); 121 mg/kg/day (rat, strain Fischer 344, males, inhaled, site: brain, lesion: glioma, dosed 101 weeks, study length 104 weeks); 30.8 mg/kg/day (rat, strain Fischer 344, males, inhaled, site: peritoneum, lesion: mesothelioma, dosed 101 weeks, study length 104 weeks); 47.3 mg/kg/day (rat, strain Fischer 344, males, inhaled, site: spleen, lesion: mononuclear-cell leukemia, dosed 101 weeks, study length 104 weeks). The TD50 runs as follows: (rat, strain Sprague-Dawley, females, by gavage, site: forestomach, lesion: squamous-cell carcinoma, dosed 107 weeks, study length 150 weeks) 10.6 mg/kg/day; (rat, strain Sprague-Dawley, females, by gavage, site: mammary gland, lesion: adenofibroma, dosed 107 weeks, study length 150 weeks) 10 mg/kg/day (inactive); (rat, strain Sprague-Dawley, females, by gavage, site: stomach, lesion: several types, types named in the paper, dosed 107 weeks, study length 150 weeks) 7.43 mg/kg/day. In addition, the carcinogen call (rat, strain Fischer 344/Mai fBR, males, inhaled, site: pituitary gland, lesion: adenoma, dosed 76 weeks, study length 78 weeks) is “negative (inactive)” and the carcinogen call (rat, strain Fischer 344/Mai fBR, males, inhaled, site: testis, lesion: interstitial-cell tumor, dosed 76 weeks, study length 78 weeks) is “negative (inactive)”.

Regarding `Oc1ccccc1`, the carcinogen call is, setting by setting: (mouse, strain B6C3F1, females, in drinking water, site: any site (literature study), lesion: several types, types named in the paper, dosed 103 weeks, study length 104 weeks) “negative (inactive)”; (mouse, strain B6C3F1, males, in drinking water, site: any site (literature study), lesion: several types, types named in the paper, dosed 103 weeks, study length 104 weeks) “negative (inactive)”; (rat, strain Fischer 344, females, in drinking water, site: any site (literature study), lesion: several types, types named in the paper, dosed 103 weeks, study length 104 weeks) “negative (inactive)”. Moreover, the TD50 by setting is: (mouse, strain B6C3F1, females, in drinking water, site: lung, lesion: alveolar/bronchiolar adenoma + alveolar/bronchiolar carcinoma, dosed 103 weeks, study length 104 weeks) 18500 mg/kg/day; (mouse, strain B6C3F1, males, in drinking water, site: liver, lesion: hepatocellular adenoma + hepatocellular carcinoma + neoplastic nodule, dosed 103 weeks, study length 104 weeks) 2450 mg/kg/day; (mouse, strain B6C3F1, males, in drinking water, site: lung, lesion: alveolar/bronchiolar adenoma + alveolar/bronchiolar carcinoma, dosed 103 weeks, study length 104 weeks) 8290 mg/kg/day; (rat, strain Fischer 344, males, in drinking water, site: all sites, lesion: leukemia + lymphoma, dosed 103 weeks, study length 104 weeks) 133 mg/kg/day; (rat, strain Fischer 344, males, in drinking water, site: all sites, lesion: leukemia, dosed 103 weeks, study length 104 weeks) 143 mg/kg/day; (rat, strain Fischer 344, males, in drinking water, site: all sites, lesion: monocytic leukemia, dosed 103 weeks, study length 104 weeks) 143 mg/kg/day. The TD50 (rat, strain Fischer 344, males, in drinking water, site: thyroid gland, lesion: c-cell carcinoma, dosed 103 weeks, study length 104 weeks) was 420 mg/kg/day (inactive).

Consider `S=C(SSSSSSC(=S)N1CCCCC1)N1CCCCC1`, for which the TD50 by setting is: (mouse, strain B6AKF1, females, oral dosing, site: any site (literature study), lesion: several types, types named in the paper, dosed 76 weeks, study length 76 weeks) 120 mg/kg/day (inactive); (mouse, strain B6C3F1, females, oral dosing, site: any site (literature study), lesion: several types, types named in the paper, dosed 76 weeks, study length 76 weeks) 83.1 mg/kg/day (inactive); (mouse, strain B6C3F1, females, oral dosing, site: lung, lesion: adenoma, dosed 76 weeks, study length 76 weeks) 83.1 mg/kg/day (inactive); (mouse, strain B6C3F1, males, oral dosing, site: any site (literature study), lesion: several types, types named in the paper, dosed 76 weeks, study length 76 weeks) 52.5 mg/kg/day (inactive); (mouse, strain B6C3F1, males, oral dosing, site: liver, lesion: hepatoma, dosed 76 weeks, study length 76 weeks) 113 mg/kg/day (inactive); (mouse, strain B6C3F1, males, oral dosing, site: lung, lesion: adenoma, dosed 76 weeks, study length 76 weeks) 113 mg/kg/day (inactive). Also, the carcinogen call (mouse, strain B6AKF1, females, oral dosing, site: liver, lesion: hepatoma, dosed 76 weeks, study length 76 weeks) is “negative (inactive)”; the carcinogen call (mouse, strain B6AKF1, females, oral dosing, site: lung, lesion: adenoma, dosed 76 weeks, study length 76 weeks) was “negative (inactive)”; the carcinogen call (mouse, strain B6AKF1, males, oral dosing, site: any site (literature study), lesion: several types, types named in the paper, dosed 76 weeks, study length 76 weeks) is “negative (inactive)”; the carcinogen call (mouse, strain B6AKF1, males, oral dosing, site: liver, lesion: hepatoma, dosed 76 weeks, study length 76 weeks) was “negative (inactive)”; the carcinogen call (mouse, strain B6AKF1, males, oral dosing, site: lung, lesion: adenoma, dosed 76 weeks, study length 76 weeks) was “negative (inactive)”; the carcinogen call (mouse, strain B6C3F1, females, oral dosing, site: liver, lesion: hepatoma, dosed 76 weeks, study length 76 weeks) was “negative (inactive)”.

Take `CCCCN(N)C=O`: the TD50 (mouse, strain Swiss albino, females, in drinking water, site: clitoral gland, lesion: several types, types named in the paper, dosed 92 weeks, study length 92 weeks) is 252 mg/kg/day; the TD50 (mouse, strain Swiss albino, females, in drinking water, site: clitoral gland, lesion: squamous-cell carcinoma, dosed 92 weeks, study length 92 weeks) is 321 mg/kg/day; the TD50 (mouse, strain Swiss albino, females, in drinking water, site: lung, lesion: several types, types named in the paper, dosed 92 weeks, study length 92 weeks) is 19.4 mg/kg/day; the TD50 (mouse, strain Swiss albino, males, in drinking water, site: lung, lesion: several types, types named in the paper, dosed 90 weeks, study length 90 weeks) is 19.2 mg/kg/day; the TD50 (mouse, strain Swiss albino, males, in drinking water, site: preputial gland, lesion: angiosarcoma, dosed 90 weeks, study length 90 weeks) turned out to be 519 mg/kg/day; the TD50 (mouse, strain Swiss albino, males, in drinking water, site: preputial gland, lesion: fibrosarcoma, dosed 90 weeks, study length 90 weeks) was 304 mg/kg/day. For the same compound, the TD50 is, setting by setting: (mouse, strain Swiss albino, males, in drinking water, site: preputial gland, lesion: several types, types named in the paper, dosed 90 weeks, study length 90 weeks) 28.2 mg/kg/day; (mouse, strain Swiss albino, males, in drinking water, site: preputial gland, lesion: squamous-cell carcinoma, dosed 90 weeks, study length 90 weeks) 35.6 mg/kg/day. Where the note is “mouse, strain Swiss albino, males, in drinking water, site: liver, lesion: angioma, dosed 90 weeks, study length 90 weeks”, the carcinogen call is “negative (inactive)”.
